{"source": "patent US20140187587A1", "about": "“SYNERGISTIC FUNGICIDAL MIXTURES FOR FUNGAL CONTROL IN CEREALS” (Dow Agrosciences LLC, priority 2012, published 2014)", "key": {"[1]": {"test_system": "Septoria tritici (SEPTTR)", "assay": "1-day protectant (1DP) test of fungicide mixtures vs. leaf blotch of wheat", "assay_type": "in vivo, Mycosphaerella graminicola; anamorph: Septoria tritici", "conditions": "single active, wheat (Yuma) plants", "experimental": "(§1) For the mixture studies with the compound of Formula I: Treatments consisted of fungicides, including the compound of Formula I and fluxapyroxad. Technical grades of materials were dissolved in acetone to make stock solutions, which were then used to perform 4-fold dilutions in acetone for each individual fungicide component or for the two-way mixture. Desired fungicide rates were obtained after mixing dilutions with 9 volumes of water containing 110 parts per million (ppm) Triton X-100. The fungicide solutions (20 milliliters (mL)) were applied to 12 pots of plants using an automated booth sprayer, which utilized two 6218-1/4 JAUPM spray nozzles operating at 20 pounds per square inch (psi) set at opposing angles to cover both leaf surfaces. All sprayed plants were allowed to air dry prior to further handling. Control plants were sprayed in the same manner with a solvent blank.\nEvaluation of Curative and Protectant Activity of Fungicide Mixtures vs. Leaf Blotch of Wheat (Mycosphaerella graminicola; Anamorph: Septoria tritici; Bayer Code: SEPTTR).\nWheat plants (variety Yuma) were grown from seed in a greenhouse in plastic pots with a surface area of 27.5 square centimeters (cm^2) containing 50% mineral soil/50% soil-less Metro mix, with 8-12 seedlings per pot. The plants were utilized for testing when the first leaf was fully emerged, which typically occurred 7-8 days after planting. Test plants were inoculated with an aqueous spore suspension of Septoria tritici either (a) 3 days prior to fungicide treatments (3-day curative test, 3DC) or (b) 1 day after fungicide treatments (1-day protectant test, 1DP). After inoculation the plants were placed in a dew room from 1-3 days to allow for infection to occur. The plants were then placed in the greenhouse for symptom development to occur, which in the case of SEPTTR typically required 25-30 days.\n(§2) When disease severity reached 50-100% on the control plants, infection levels were assessed on treated plants visually and scored on a scale of 0 to 100 percent. The percentage of disease control was then calculated using the ratio of disease on treated plants relative to control plants.\n(§3) The Colby equation was used to determine the fungicidal effects expected from the mixtures. (See Colby, S. R. Calculation of the synergistic and antagonistic response of herbicide combinations. Weeds 1967, 15, 20-22.)\n(§4) The following equation was used to calculate the expected activity of mixtures containing two active ingredients, A and B:\n(§5) A=observed efficacy of active component A at the same concentration as used in the mixture;\n(§6) B=observed efficacy of active component B at the same concentration as used in the mixture."}, "[2]": {"test_system": "Puccinia recondita (PUCCRT)", "assay": "3-day curative (3DC) test of fungicide mixtures vs. wheat brown rust", "assay_type": "in vivo", "conditions": "single active, wheat (Yuma) plants", "experimental": "as §1\nEvaluation of Curative Activity of Fungicide Mixtures vs. Wheat Brown Rust (Puccinia recondita; Bayer Code: PUCCRT).\nYuma wheat seedlings were grown as described above and inoculated with an aqueous spore suspension of Puccinia recondita 3 days prior to fungicide treatment (3DC). After inoculation, plants were placed in a dew room for 1 day to allow for infection to occur. The plants were then placed in the greenhouse for symptom development to occur, which in the case of PUCCRT typically required 7-10 days.\nas §2, §3, §4, §5, §6"}}, "data": [{"smiles": "COc1ccnc(C(=O)N[C@H]2COC(=O)[C@H](Cc3ccccc3)[C@@H](OC(=O)C(C)C)[C@H](C)OC2=O)c1OCOC(=O)C(C)C", "note": "[Compound I, (3S,6S,7R,8R)-8-benzyl-3-(3-((isobutyryloxy)methoxy)-4-methoxypicolinamido)-6-methyl-4,9-dioxo-1,5-dioxonan-7-yl isobutyrate]", "values": [{"measurement": "% DC Obs (percent disease control observed), SEPTTR 1DP", "setting": "[1]; application rate 0.1 ppm", "value": 0, "unit": "%"}, {"measurement": "% DC Obs (percent disease control observed), SEPTTR 1DP", "setting": "[1]; application rate 0.39 ppm", "value": 0, "unit": "%"}, {"measurement": "% DC Obs (percent disease control observed), SEPTTR 1DP", "setting": "[1]; application rate 1.56 ppm", "value": 2, "unit": "%"}, {"measurement": "% DC Obs (percent disease control observed), SEPTTR 1DP", "setting": "[1]; application rate 6.25 ppm", "value": 93, "unit": "%"}, {"measurement": "% DC Obs (percent disease control observed), PUCCRT 3DC", "setting": "[2]; application rate 0.1 ppm", "value": 2, "unit": "%"}, {"measurement": "% DC Obs (percent disease control observed), PUCCRT 3DC", "setting": "[2]; application rate 0.39 ppm", "value": 0, "unit": "%"}, {"measurement": "% DC Obs (percent disease control observed), PUCCRT 3DC", "setting": "[2]; application rate 1.56 ppm", "value": 12, "unit": "%"}, {"measurement": "% DC Obs (percent disease control observed), PUCCRT 3DC", "setting": "[2]; application rate 6.25 ppm", "value": 98, "unit": "%"}]}, {"smiles": "Cn1cc(C(=O)Nc2ccccc2-c2cc(F)c(F)c(F)c2)c(C(F)F)n1", "note": "[Fluxapyroxad, 3-(difluoromethyl)-1-methyl-N-(3′,4′,5′-trifluorobiphenyl-2-yl)pyrazole-4-carboxamide]", "values": [{"measurement": "% DC Obs (percent disease control observed), SEPTTR 1DP", "setting": "[1]; application rate 0.1 ppm", "value": 0, "unit": "%"}, {"measurement": "% DC Obs (percent disease control observed), SEPTTR 1DP", "setting": "[1]; application rate 0.39 ppm", "value": 0, "unit": "%"}, {"measurement": "% DC Obs (percent disease control observed), SEPTTR 1DP", "setting": "[1]; application rate 1.56 ppm", "value": 0, "unit": "%"}, {"measurement": "% DC Obs (percent disease control observed), SEPTTR 1DP", "setting": "[1]; application rate 6.25 ppm", "value": 94, "unit": "%"}, {"measurement": "% DC Obs (percent disease control observed), PUCCRT 3DC", "setting": "[2]; application rate 0.1 ppm", "value": 0, "unit": "%"}, {"measurement": "% DC Obs (percent disease control observed), PUCCRT 3DC", "setting": "[2]; application rate 0.39 ppm", "value": 0, "unit": "%"}, {"measurement": "% DC Obs (percent disease control observed), PUCCRT 3DC", "setting": "[2]; application rate 1.56 ppm", "value": 86, "unit": "%"}, {"measurement": "% DC Obs (percent disease control observed), PUCCRT 3DC", "setting": "[2]; application rate 6.25 ppm", "value": 100, "unit": "%"}]}]}
